Results published in ChEMBL document CHEMBL1909046, “DrugMatrix in vitro pharmacology data”.

Key:
[1] = target: T1, Calcitonin receptor (Homo sapiens, UniProt P30988); assay type: cell membranes, Membrane; conditions: t47d; further: in other assays of this panel Not Active means under 50% inhibition at 10 µM
T1 sequence (P30988 whole entry): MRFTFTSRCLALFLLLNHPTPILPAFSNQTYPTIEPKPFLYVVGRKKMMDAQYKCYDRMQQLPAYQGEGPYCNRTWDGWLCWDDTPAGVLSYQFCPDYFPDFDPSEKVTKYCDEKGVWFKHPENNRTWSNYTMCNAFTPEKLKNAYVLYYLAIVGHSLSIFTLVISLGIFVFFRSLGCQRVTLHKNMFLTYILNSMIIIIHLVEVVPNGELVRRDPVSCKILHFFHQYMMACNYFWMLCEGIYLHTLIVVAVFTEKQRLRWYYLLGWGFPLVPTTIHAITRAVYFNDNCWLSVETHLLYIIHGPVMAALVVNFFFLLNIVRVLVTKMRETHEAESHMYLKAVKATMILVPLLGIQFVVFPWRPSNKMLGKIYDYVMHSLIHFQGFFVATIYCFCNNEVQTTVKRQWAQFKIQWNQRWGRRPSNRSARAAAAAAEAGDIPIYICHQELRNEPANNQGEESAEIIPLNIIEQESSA

[2] = target: T2, Neuropeptide Y receptor type 2 (Homo sapiens, UniProt P49146); assay type: cell membranes, Membrane; conditions: kan-ts; further: in other assays of this panel Not Active means under 50% inhibition at 10 µM
T2 sequence (P49146 whole entry): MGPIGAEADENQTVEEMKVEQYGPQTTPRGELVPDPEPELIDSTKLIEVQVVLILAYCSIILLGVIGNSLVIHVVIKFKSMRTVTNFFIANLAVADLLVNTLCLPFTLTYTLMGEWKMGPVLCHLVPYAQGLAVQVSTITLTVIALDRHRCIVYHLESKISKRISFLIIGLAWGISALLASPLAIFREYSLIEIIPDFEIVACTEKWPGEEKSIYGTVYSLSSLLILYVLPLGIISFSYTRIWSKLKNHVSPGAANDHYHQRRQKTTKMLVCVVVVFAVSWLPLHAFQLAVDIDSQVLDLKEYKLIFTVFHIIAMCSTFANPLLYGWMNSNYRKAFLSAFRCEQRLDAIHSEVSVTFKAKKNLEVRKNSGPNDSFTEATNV

[3] = target: Protein kinase C alpha type (Homo sapiens, UniProt P17252); assay type: cell-based; conditions: sf9;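 further: inhibition of PKCalpha kinase activity measured in an enzyme assay with histone as the phosphorylation substrate; in other assays of this panel Not Active means under 50% inhibition at 10 µM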
[4] = target: Epidermal growth factor receptor (Homo sapiens, UniProt P00533); assay: DRUGMATRIX: Protein Tyrosine Kinase, EGF Receptor enzyme inhibition (substrate: Poly(Glu:Tyr)); assay type: cell-based, Insect cells; conditions: Not Active = under 50% inhibition at 10 µM
[5] = DRUGMATRIX: Calcium Channel Type L, Benzothiazepine radioligand binding (ligand: [3H] Diltiazem); assay type: cell membranes, Rattus norvegicus, Wistar, Brain, Membrane; conditions: Not Active = under 50% inhibition at 10 µM
[6] = target: Aldo-keto reductase family 1 member B1 (Rattus norvegicus, UniProt P07943); assay: biochemical; assay type: tissue-based, Lens of camera-type eye;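 further: inhibition of aldose reductase enzyme activity, measured with DL-glyceraldehyde as the substrate; in other assays of this panel Not Active means under 50% inhibition at 10 µM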
[7] = target: Delta-type opioid receptor (Homo sapiens, UniProt P41143); assay type: cell membranes, HEK293, Membrane; further: in other assays of this panel Not Active means under 50% inhibition at 10 µM
Sequence of Delta-type opioid receptor (P41143 whole entry): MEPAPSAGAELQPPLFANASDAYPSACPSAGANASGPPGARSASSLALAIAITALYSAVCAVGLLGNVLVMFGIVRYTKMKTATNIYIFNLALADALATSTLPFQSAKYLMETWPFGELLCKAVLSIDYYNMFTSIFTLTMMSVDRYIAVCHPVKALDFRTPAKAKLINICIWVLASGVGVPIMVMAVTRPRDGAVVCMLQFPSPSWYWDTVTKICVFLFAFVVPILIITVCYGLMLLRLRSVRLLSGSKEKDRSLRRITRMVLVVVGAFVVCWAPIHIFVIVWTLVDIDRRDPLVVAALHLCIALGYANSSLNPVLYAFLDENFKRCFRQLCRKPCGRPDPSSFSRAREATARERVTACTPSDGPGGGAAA

Sequence of Epidermal growth factor receptor (P00533 whole entry): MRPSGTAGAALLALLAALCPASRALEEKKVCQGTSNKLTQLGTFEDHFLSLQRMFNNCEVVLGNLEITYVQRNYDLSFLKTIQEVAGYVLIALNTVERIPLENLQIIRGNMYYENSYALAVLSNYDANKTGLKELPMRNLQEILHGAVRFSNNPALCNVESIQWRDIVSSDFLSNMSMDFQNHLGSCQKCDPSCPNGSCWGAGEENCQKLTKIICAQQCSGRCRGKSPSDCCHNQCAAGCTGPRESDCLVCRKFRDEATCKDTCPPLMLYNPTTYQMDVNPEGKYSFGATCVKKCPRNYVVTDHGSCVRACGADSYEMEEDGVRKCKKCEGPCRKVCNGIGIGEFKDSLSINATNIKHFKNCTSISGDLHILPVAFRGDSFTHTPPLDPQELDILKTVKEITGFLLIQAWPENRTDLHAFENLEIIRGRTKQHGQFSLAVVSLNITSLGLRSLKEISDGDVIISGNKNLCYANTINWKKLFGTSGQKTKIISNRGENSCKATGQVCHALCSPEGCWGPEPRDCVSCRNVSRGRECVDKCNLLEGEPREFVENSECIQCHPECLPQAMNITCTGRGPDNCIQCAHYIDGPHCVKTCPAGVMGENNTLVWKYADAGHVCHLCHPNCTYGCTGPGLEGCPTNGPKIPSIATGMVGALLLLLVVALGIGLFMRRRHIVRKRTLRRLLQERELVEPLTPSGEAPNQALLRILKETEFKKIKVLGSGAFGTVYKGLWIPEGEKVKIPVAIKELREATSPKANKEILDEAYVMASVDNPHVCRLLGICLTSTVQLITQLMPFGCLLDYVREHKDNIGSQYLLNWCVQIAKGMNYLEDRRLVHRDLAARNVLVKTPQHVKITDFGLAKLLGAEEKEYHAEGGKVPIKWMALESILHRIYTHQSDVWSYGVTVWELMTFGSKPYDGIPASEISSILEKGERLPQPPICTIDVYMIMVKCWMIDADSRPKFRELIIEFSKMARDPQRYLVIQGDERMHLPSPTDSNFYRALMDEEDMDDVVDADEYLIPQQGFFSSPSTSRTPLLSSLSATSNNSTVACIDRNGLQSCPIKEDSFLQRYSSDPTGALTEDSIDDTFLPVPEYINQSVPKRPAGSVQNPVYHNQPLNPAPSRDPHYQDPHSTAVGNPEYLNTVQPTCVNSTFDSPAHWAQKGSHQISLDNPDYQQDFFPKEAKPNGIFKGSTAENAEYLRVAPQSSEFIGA

Structure (SMILES)	IC50 [1]	IC50 [2]	IC50 [3]	IC50 ([4]; insect cells)	IC50 ([5]; read-out: IC50)	Ki ([5]; read-out: Ki)	IC50 [6]	IC50 [5]	Ki [5]	IC50 ([7]; hek293)	IC50 ([4]; read-out: IC50)	IC50 ([6]; read-out: IC50)	IC50 ([7]; read-out: IC50)	Ki ([7]; read-out: Ki)
CC(C)(C)NC(=O)[C@@H]1C[C@@H]2CCCC[C@@H]2CN1C[C@@H](O)[C@H](Cc1ccccc1)NC(=O)[C@H](CC(N)=O)NC(=O)c1ccc2ccccc2n1	Not Active	Not Active	Not Active	Not Active	10.9 µM	9.69 µM	Not Active							
CC(=O)[C@@]1(O)CC[C@H]2[C@@H]3C[C@H](C)C4=CC(=O)CC[C@]4(C)[C@H]3CC[C@@]21C	Not Active	Not Active	Not Active	Not Active			Not Active	Not Active	Not Active	Not Active				
N[C@@H](Cc1ccc(N(CCCl)CCCl)cc1)C(=O)O	Not Active	Not Active	Not Active	Not Active			Not Active	Not Active	Not Active	Not Active				
CCCCc1oc2ccccc2c1C(=O)c1cc(I)c(OCCN(CC)CC)c(I)c1 [AMIODARONE]	Not Active	Not Active	Not Active	Not Active			Not Active							
OCCN(CCO)c1nc(N2CCCCC2)c2nc(N(CCO)CCO)nc(N3CCCCC3)c2n1 [DIPYRIDAMOLE]	Not Active	Not Active	Not Active	Not Active			Not Active	Not Active	Not Active	Not Active				
Cc1oncc1C(=O)Nc1ccc(C(F)(F)F)cc1 [LEFLUNOMIDE]	Not Active	Not Active	Not Active	Not Active			Not Active	Not Active	Not Active	Not Active				
c1ccc([C@H]2CN3CCSC3=N2)cc1 [LEVAMISOLE]	Not Active	Not Active	Not Active	Not Active			Not Active	Not Active	Not Active	Not Active				
N[C@@H](Cc1ccc(O)c(O)c1)C(=O)O [LEVODOPA]	Not Active	Not Active	Not Active				Not Active	Not Active	Not Active	Not Active	2.88 µM			
N[C@@H](Cc1cc(I)c(Oc2ccc(O)c(I)c2)c(I)c1)C(=O)O [LIOTHYRONINE]	Not Active	Not Active	Not Active	Not Active			Not Active			Not Active				
O=NN(CCCl)C(=O)NC1CCCCC1 [LOMUSTINE]	Not Active	Not Active	Not Active	Not Active			Not Active	Not Active	Not Active	Not Active				
CCOC(=O)N1CCC(=C2c3ccc(Cl)cc3CCc3cccnc32)CC1 [LORATADINE]	Not Active	Not Active	Not Active	Not Active			Not Active	Not Active	Not Active	Not Active				
Cn1ccnc1S [METHIMAZOLE]	Not Active	Not Active	Not Active	Not Active			Not Active	Not Active	Not Active	Not Active				
CC[C@@H](CO)NC(=O)[C@@H]1C=C2c3cccc4[nH]cc(c34)C[C@H]2N(C)C1 [METHYLERGONOVINE]	Not Active	Not Active	Not Active	Not Active			Not Active	Not Active	Not Active	Not Active				
COc1nc(C)nc(Cl)c1NC1=NCCN1 [MOXONIDINE]	Not Active	Not Active	Not Active	Not Active			Not Active	Not Active	Not Active	Not Active				
COc1c(C)c2c(c(O)c1C/C=C(\C)CCC(=O)O)C(=O)OC2 [MYCOPHENOLIC ACID]	Not Active	Not Active	Not Active	Not Active			Not Active	Not Active	Not Active	Not Active				
O=c1ncn2nc(Sc3ccc(F)cc3F)ccc2c1-c1c(Cl)cccc1Cl [NEFLAMAPIMOD]	Not Active	Not Active	Not Active	Not Active			Not Active	Not Active	Not Active	Not Active				
CN1CCN(CCCN2c3ccccc3Sc3ccc(Cl)cc32)CC1 [PROCHLORPERAZINE]	Not Active	Not Active	Not Active	Not Active			Not Active			Not Active				
CO[C@H]1/C=C/O[C@@]2(C)Oc3c(C)c(O)c4c(O)c(c(/C=N/N5CCN(C)CC5)c(O)c4c3C2=O)NC(=O)/C(C)=C\C=C\[C@H](C)[C@H](O)[C@@H](C)[C@@H](O)[C@@H](C)[C@H](OC(C)=O)[C@@H]1C [RIFAMPIN]	Not Active	Not Active	Not Active	Not Active			Not Active	Not Active	Not Active	Not Active				
Nc1nc2ccc(OC(F)(F)F)cc2s1 [RILUZOLE]	Not Active	Not Active	Not Active	Not Active			Not Active	Not Active	Not Active	Not Active				
Cc1nc2n(c(=O)c1CCN1CCC(c3noc4cc(F)ccc34)CC1)CCCC2 [RISPERIDONE]	Not Active	Not Active	Not Active	Not Active			Not Active			Not Active				
C=CCC1(C(C)CCC)C(=O)NC(=O)NC1=O (configuration not stated) [SECOBARBITAL]	Not Active	Not Active	Not Active	Not Active			Not Active	Not Active	Not Active	Not Active				
C[C@@H]1CN(c2c(F)c(N)c3c(=O)c(C(=O)O)cn(C4CC4)c3c2F)C[C@H](C)N1 [SPARFLOXACIN]	Not Active	Not Active	Not Active	Not Active			Not Active	Not Active	Not Active	Not Active				
Cc1noc(NS(=O)(=O)c2ccc(N)cc2)c1C [SULFISOXAZOLE]	Not Active	Not Active	Not Active	Not Active			Not Active	Not Active	Not Active	Not Active				
CSc1ccc(/C=C2/C(C)=C(CC(=O)O)c3cc(F)ccc32)cc1 [SULINDAC SULFIDE]	Not Active	Not Active	Not Active					Not Active	Not Active	Not Active	24 µM	0.084 µM		
Nc1c2c(nc3ccccc13)CCCC2 [TACRINE]	Not Active	Not Active	Not Active	Not Active			Not Active	Not Active	Not Active	Not Active				
CC/C(=C(\c1ccccc1)c1ccc(OCCN(C)C)cc1)c1ccccc1 [TAMOXIFEN]	Not Active	Not Active	Not Active				Not Active				3.55 µM		13.3 µM	4.7 µM
CC(C)N1CCN(c2ccc(OCC3COC(Cn4cncn4)(c4ccc(Cl)cc4Cl)O3)cc2)CC1 (configuration not stated) [TERCONAZOLE]	Not Active	Not Active	Not Active	Not Active	3.01 µM	2.67 µM	Not Active			Not Active				
Nc1nc2nc[nH]c2c(=S)[nH]1 [THIOGUANINE]	Not Active	Not Active	Not Active	Not Active			Not Active	Not Active	Not Active	Not Active				
N[C@@H]1[C@H]2CN(c3nc4c(cc3F)c(=O)c(C(=O)O)cn4-c3ccc(F)cc3F)C[C@@H]12 [TROVAFLOXACIN]	Not Active	Not Active	Not Active				Not Active	Not Active	Not Active	Not Active				
N#CC(C#N)=Cc1ccc(O)c(O)c1 [TYRPHOSTIN 23]	Not Active	Not Active	Not Active					Not Active	Not Active	Not Active		0.202 µM		
